Test results: patent US9790221B2, “Heteroaryl compounds as IRAK inhibitors and uses thereof” (Merck Patent GmbH, priority 2014, dated 2017)

How the values were obtained:
IRAK4 = IRAK4 (Homo sapiens (Human), UniProt Q9NWZ3); assay: IRAK4 enzymatic assay; format: biochemical
Description: IRAK4 is a human purified recombinant enzyme ([…]. IRAK4 hydrolyses ATP, autophosphorylates and phosphorylates a Serine/Threonine generic peptidic substrate (STK: 61ST1BLC from CisBio International based in Bagnols/Cèze FR).
Measurement of IRAK-4 inhibition was performed in streptavidin coated 384well FlashPlate (PerkinElmer #SMP410A). His-TEV-IRAK4 (20 ng/well), ATP (2 μM, [^33P]ATP 0.25 µCi/well), STK1-biotin peptide (300 nM) and compounds in DMSO (range of concentrations from 20 µM to 1 nM) or controls (2% DMSO) were incubated for 3 hours at 30° C. in assay buffer: Hepes pH7.0 50 mM, Fatty acid-free BSA 0.1%, Dithiothreitol DTT 2 mM, MgCl2 10 mM, EGTA 0.5 mM, Tween-20 0.01%, MnCl2 5 mM.
Kinase reaction was stopped by addition of EDTA. Supernatant was discarded, plates were washed three times with 150 mM NaCl and radioactivity was then measured in a Microbeta Trilux reader.

[1] = biological target: IRAK1 (His-TEV-IRAK1 (194-712)) (Homo sapiens (Human), UniProt P51617); assay: IRAK1 enzymatic assay; format: biochemical
Description: IRAK1 is a human purified recombinant enzyme (His-TEV-IRAK1 (194-712)). In this assay, IRAK-1 hydrolyses ATP and autophosphorylates. Measurement of IRAK-1 inhibition was performed in streptavidin coated 384well FlashPlate (PerkinElmer #SMP410A).
His-TEV-IRAK-1 (15 ng/well), ATP (1 μM, [33P]ATP 0.25 μCi/well) and compounds in DMSO (range of concentrations from 20 µM to 1 nM) or controls (2% DMSO) were incubated for 3 hours at 30° C. in assay buffer: Hepes pH7.0 50 mM, Fatty acid-free BSA 0.1%, Dithiothreitol DTT 2 mM, MgCl2 10 mM, EGTA 0.5 mM, Triton-X-100 0.01%. Kinase reaction was stopped by addition of EDTA. Supernatant was discarded, plates were washed three times with 150 mM NaCl and radioactivity was then measured in a Microbeta Trilux reader.

IRAK1 (His-TEV-IRAK1 (194-712)), sequence (P51617 194-712): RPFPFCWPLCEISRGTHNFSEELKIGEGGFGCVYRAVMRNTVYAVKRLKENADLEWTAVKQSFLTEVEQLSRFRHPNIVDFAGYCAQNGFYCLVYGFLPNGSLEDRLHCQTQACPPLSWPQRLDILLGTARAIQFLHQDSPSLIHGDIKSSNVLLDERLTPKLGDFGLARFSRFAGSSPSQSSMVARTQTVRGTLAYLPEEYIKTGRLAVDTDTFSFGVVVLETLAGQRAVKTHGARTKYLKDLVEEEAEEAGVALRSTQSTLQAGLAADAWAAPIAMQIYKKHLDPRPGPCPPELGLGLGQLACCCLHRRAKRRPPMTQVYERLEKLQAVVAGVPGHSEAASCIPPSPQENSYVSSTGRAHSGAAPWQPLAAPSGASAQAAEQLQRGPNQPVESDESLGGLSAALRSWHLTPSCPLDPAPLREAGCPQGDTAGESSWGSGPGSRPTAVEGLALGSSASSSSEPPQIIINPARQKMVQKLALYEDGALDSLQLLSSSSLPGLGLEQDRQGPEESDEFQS
IRAK4, sequence (Q9NWZ3 whole entry): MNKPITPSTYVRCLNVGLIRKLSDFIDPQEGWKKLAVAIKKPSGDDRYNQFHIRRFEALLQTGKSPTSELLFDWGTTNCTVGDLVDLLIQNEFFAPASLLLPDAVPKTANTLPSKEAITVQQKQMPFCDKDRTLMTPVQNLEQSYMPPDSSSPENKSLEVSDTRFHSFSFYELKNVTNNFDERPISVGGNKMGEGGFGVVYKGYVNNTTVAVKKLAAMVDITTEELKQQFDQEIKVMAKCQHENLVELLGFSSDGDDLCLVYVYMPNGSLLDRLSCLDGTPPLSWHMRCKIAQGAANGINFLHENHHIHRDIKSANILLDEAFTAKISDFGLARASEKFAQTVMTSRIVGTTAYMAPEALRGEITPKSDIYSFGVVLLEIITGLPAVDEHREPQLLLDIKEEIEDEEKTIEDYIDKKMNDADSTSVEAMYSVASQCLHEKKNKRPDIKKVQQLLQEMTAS

IC50 (IRAK4)	IC50 [1]	SMILES
100 to 1000 nM	> 5000 nM	Cn1cc(-c2cccc(-c3ncc(-c4ccn(C)n4)c(NCC4CCCC(O)C4)n3)c2)cn1 (stereo not drawn) [Example 122]
100 to 1000 nM	> 5000 nM	Cn1cc(-c2cccc(-c3ncc(-c4ccn(C)n4)c(N[C@H]4C[C@@H](N)C4)n3)c2)cn1 [Example 124]
100 to 1000 nM	1000 to 5000 nM	Cn1cc(-c2cccc(-c3ncc(-c4cnn(C)c4)c(N[C@@H]4CNC[C@@H](F)C4)n3)c2)cn1 [Example 130]
100 to 1000 nM	100 to 1000 nM	Cn1cc(-c2cccc(-c3ncc(-c4cnn(C)c4)c(NCCCC(C)(C)O)n3)c2)cn1 [Example 139]
100 to 1000 nM	1000 to 5000 nM	Cn1cc(-c2cccc(-c3ncc(-c4ccn(C)n4)c(NCCCC(C)(C)O)n3)c2)cn1 [Example 140]
1000 to 5000 nM	> 5000 nM	CN(CC1CC(F)(F)C1)c1nc(-c2cccc(-c3cnn(C)c3)c2)ncc1-c1ccn(C)n1 [Example 142]
100 to 1000 nM	> 5000 nM	Cn1cc(-c2cccc(-c3ncc(-c4ccn(C)n4)c(NCC4CCNC4)n3)c2)cn1 (stereo not drawn) [Example 144]
100 to 1000 nM	> 5000 nM	Cn1cc(-c2cccc(-c3ncc(-c4cnn(C)c4)c(NCC4CCNC4)n3)c2)cn1 (stereo not drawn) [Example 145]
< 100 nM	> 5000 nM	Cn1cc(-c2cccc(-c3ncc(-c4ccn(C)n4)c(N[C@H]4CC[C@H](O)CC4)n3)c2)cn1 [Example 147]
100 to 1000 nM	> 5000 nM	Cn1cc(-c2cccc(-c3ncc(-c4cnn(C)c4)c(N4CCNCC4)n3)c2)cn1 [Example 148]
100 to 1000 nM	> 5000 nM	Cn1cc(-c2cccc(-c3ncc(-c4cnn(C)c4)c(NC4CCC5CNCC54)n3)c2)cn1 (stereo not drawn) [Example 150]
100 to 1000 nM	> 5000 nM	Cn1cc(-c2cccc(-c3ncc(-c4ccn(C)n4)c(NC4CCC5CNCC54)n3)c2)cn1 (stereo not drawn) [Example 154]
< 100 nM	> 5000 nM	Cn1cc(-c2cccc(-c3ncc(-c4cnn(C)c4)c(NC[C@H]4CC[C@@H](O)CC4)n3)c2)cn1 [Example 155]
< 100 nM	100 to 1000 nM	Cn1cc(-c2cccc(-c3ncc(-c4cnn(C)c4)c(NCC4CC4)n3)c2)cn1 [Example 157]
< 100 nM	100 to 1000 nM	Cn1cc(-c2cccc(-c3ncc(-c4cnn(C)c4)c(NCC4CCN(S(C)(=O)=O)C4)n3)c2)cn1 (stereo not drawn) [Example 158]
< 100 nM	> 5000 nM	Cn1cc(-c2cccc(-c3ncc(-c4cnn(C)c4)c(NC4C5CCCC4CC(NS(C)(=O)=O)C5)n3)c2)cn1 (stereo not drawn) [Example 159]
< 100 nM	100 to 1000 nM	Cn1cc(-c2cccc(-c3ncc(-c4cnn(C)c4)c(NC4CC5(C4)CC(NS(C)(=O)=O)C5)n3)c2)cn1 (stereo not drawn) [Example 160]
< 100 nM	100 to 1000 nM	Cn1cc(-c2cccc(-c3ncc(-c4cnn(C)c4)c(NCC4CCC4)n3)c2)cn1 [Example 163]
< 100 nM	> 5000 nM	Cn1cc(-c2cccc(-c3ncc(-c4cnn(C)c4)c(NC4CCC5CN(S(C)(=O)=O)CC54)n3)c2)cn1 (stereo not drawn) [Example 168]
< 100 nM	100 to 1000 nM	Cn1cc(-c2cccc(-c3ncc(-c4cnn(C)c4)c(NCC4CN(S(C)(=O)=O)CCO4)n3)c2)cn1 (stereo not drawn) [Example 172]
100 to 1000 nM	> 5000 nM	Cn1cc(-c2cccc(-c3ncc(-c4cnn(C)c4)c(NCC4[C@H]5CN(S(C)(=O)=O)C[C@@H]45)n3)c2)cn1 (stereo partly drawn) [Example 173]
< 100 nM	100 to 1000 nM	Cn1cc(-c2cccc(-c3ncc(-c4cnn(C)c4)c(NC[C@H]4CCN(S(C)(=O)=O)C4)n3)c2)cn1 [Example 174]
100 to 1000 nM	100 to 1000 nM	Cn1cc(-c2cccc(-c3ncc(-c4cnn(C)c4)c(NCCC4CCN(S(C)(=O)=O)C4)n3)c2)cn1 (stereo not drawn) [Example 175]
< 100 nM	100 to 1000 nM	Cn1cc(-c2cccc(-c3ncc(-c4cnn(C)c4)c(NCCCCNS(C)(=O)=O)n3)c2)cn1 [Example 177]
100 to 1000 nM	100 to 1000 nM	Cn1cc(-c2cccc(-c3ncc(-c4cnn(C)c4)c(NC4CCCCN(S(C)(=O)=O)C4)n3)c2)cn1 (stereo not drawn) [Example 178]
< 100 nM	100 to 1000 nM	Cn1cc(-c2cccc(-c3ncc(-c4cnn(C)c4)c(NC4CC(CO)(CO)C4)n3)c2)cn1 [Example 180]
> 5000 nM	> 5000 nM	Cn1cc(-c2cccc(-c3ncc(-c4cnn(C)c4)c(NC4CC5CC4N(S(C)(=O)=O)C5)n3)c2)cn1 (stereo not drawn) [Example 189]
